Experimental findings from PubChem BioAssay (NCI) are described below.

Common to all, as to assay: DTP human tumour cell line panel, 48 h
Assay [1] relates to 786-0 renal.
The test system of assay [2] is COLO 205 colon.
Assay [3] concerns HL-60(TB) leukemia.
For assay [4], the system named is HS 578T breast.
Assay [5] concerns KM12 colon.
The test system of assay [6] is LOX IMVI melanoma.
Assay [7] relates to SF-268 CNS.
The subject of assay [8] is SK-MEL-5 melanoma.
In assay [9] the test system is SN12C renal.
For assay [10], the system named is U251 CNS.

As usually defined, the GI50 is the concentration giving 50% growth inhibition. For orientation: TGI means the concentration giving total growth inhibition.

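Values below derive from 48-hour exposures of cells grown in 96-well plates, with endpoints linearly interpolated between the two concentrations bracketing the appropriate inhibition level. At the GI50, growth is halved. At the TGI there is no net growth.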 Bounds are passed on as bounds.

As to `O=C1CC[C@H](N2C(=O)c3cccc4c(Cc5ccc(CN6CCOCC6)cc5)ccc2c34)C(=O)N1`, the GI50 in assay [1] was more than 100 µM; in assay [2] it was 45.8 µM; in assay [3], 24.1 µM; in assay [4], 46.8 µM; in assay [5] it was 79 µM; in [6], 26.1 µM. The GI50 in assay [7] is more than 100 µM; in assay [8], 7.32 µM; in assay [9] it was 63.4 µM; in [10] it was 60.3 µM. Moreover, the concentration for total growth inhibition (TGI) in assay [1], in assay [2], in assay [3], in assay [4], in [5] and in [6] was more than 100 µM each time. In addition, the total growth inhibition concentration (TGI) is more than 100 µM in assay [7], 26.4 µM in assay [8], more than 100 µM in assay [9] and more than 100 µM in [10].

`CC12OOC(c3ccccc31)c1c2ccc2ccccc12` (stereo not drawn): the concentration for total growth inhibition (TGI) in assay [1] was 22.3 µM; in assay [2], 3.24 µM; in assay [3], 2.72 µM; in assay [4] it was 78.7 µM; in [5], 7.43 µM; in assay [6], 6.41 µM. Besides, the TGI in assay [7] was 28 µM; in assay [8], 21.6 µM; in [9] it was 29.6 µM; in assay [10], 28.1 µM.

In the case of `NS(=O)(=O)OCC1OC(n2cnc3cncnc32)C(O)C1O` (stereo not drawn), the concentration for 50% growth inhibition (GI50) is 0.0228 µM in assay [1]; 0.0291 µM in assay [2]; 0.0556 µM in assay [3]; 0.0592 µM in assay [4]; 0.0179 µM in assay [5]; 0.0228 µM in [6]. For the same compound, the 50% growth inhibitory concentration (GI50) in assay [7] was 0.0267 µM; in assay [8] it was 0.0402 µM; in assay [9] it was less than 0.01 µM; in assay [10], 0.022 µM. Also, the total growth inhibition concentration (TGI) worked out at 0.0693 µM in [1]; 0.0847 µM in assay [2]; 0.932 µM in [4]; 0.0522 µM in assay [5]; 0.0548 µM in [6]; 0.279 µM in [7]. Further, the figures for the TGI in [8], in [9] and in assay [10] were 0.144 µM, 0.0369 µM and 0.0749 µM, respectively.

Turning to `CCN(CC)CCNc1ccc(C)c2sc3cc(Cl)ccc3c(=O)c12`, the GI50 in assay [1] was 1.66 µM; in assay [2] it was 1.62 µM; in assay [3], 1.81 µM; in assay [4], 1.65 µM; in assay [5] it was 1.75 µM; in [6], 1.58 µM. The GI50 in assay [7] was 1.68 µM; in [8] it was 1.68 µM; in assay [9], 1.68 µM; in assay [10], 1.73 µM. Moreover, the total growth inhibition concentration (TGI) was determined as 3.1 µM in assay [1]; 3.35 µM in assay [2]; 3.71 µM in assay [3]; 3.9 µM in [4]; 3.26 µM in [5]; 3.01 µM in [6]. Besides, the concentration for total growth inhibition (TGI) amounted to 3.37 µM in assay [7], 3.07 µM in assay [8], 3.44 µM in assay [9] and 3.22 µM in assay [10].

Consider `Cc1ccc(NC(=O)c2ccc(CN3CCN(C)CC3)cc2)cc1Nc1nccc(-c2cccnc2)n1`, for which the GI50 in assay [1] was 16.1 µM; in [2], 16.7 µM; in assay [3], 16 µM; in assay [4], 15 µM; in assay [5] it was 18.8 µM; in assay [6], 13.1 µM. Also, the GI50 was 25.6 µM in [7], 12.3 µM in assay [8], 30.7 µM in assay [9] and 17.7 µM in assay [10]. Moreover, the concentration for total growth inhibition (TGI) was found to be 33.6 µM in [1]; 40.5 µM in assay [2]; 35.9 µM in assay [3]; 43.1 µM in [4]; 41.3 µM in assay [5]; 34.8 µM in assay [6]. In addition, the concentration for total growth inhibition (TGI) in [7] is 71 µM; in [8], 24.9 µM; in [9] it was more than 100 µM; in [10], 45.1 µM.

With `CC1(C)N=C(N)N=C(N)N1c1ccc(CCCCc2ccccc2)c(Cl)c1`, the GI50 was 0.055 µM in assay [1]; 0.0281 µM in assay [2]; 4.49 µM in [4]; 0.059 µM in assay [5]; 0.0131 µM in [6]; 0.0536 µM in [7]. Further, the GI50 in assay [8] is 0.0628 µM; in [9] it was 0.0521 µM; in assay [10], less than 0.01 µM. In addition, the TGI amounted to 13.1 µM in assay [1]; 1.68 µM in [2]; 3.26 µM in assay [3]; 39.4 µM in assay [4]; 1.42 µM in assay [5]; 1.52 µM in assay [6]. For the same compound, the concentration for total growth inhibition (TGI) in assay [7] came to 13.7 µM; in assay [8], 1.32 µM; in assay [9] it was 7.02 µM; in assay [10], 1.83 µM.

On to `C[n+]1c(/C=C/c2c[nH]c3ccccc23)ccc2ccccc21`, for which the GI50 in assay [1] was 14.2 µM; in assay [2], 5.44 µM; in [3], 12.8 µM; in assay [4] it was 13.2 µM; in assay [5], 4.61 µM; in [6], 11 µM. Further, the GI50 in assay [7] is 10.4 µM; in assay [8], 6.15 µM; in [9], 5.68 µM; in assay [10], 8.75 µM. Also, the TGI in [1] is 30.3 µM; in assay [2], 22.2 µM; in assay [3], 30.1 µM; in assay [4], 33.3 µM; in assay [5], 22.3 µM; in assay [6], 23.1 µM. Besides, the total growth inhibition concentration (TGI) in assay [7] turned out to be 24.2 µM; in assay [8] it was 19.6 µM; in assay [9] it was 21 µM; in assay [10] it was 22.5 µM.

As for `O=C(c1ccco1)c1nc2cc(C(F)(F)F)ccc2nc1C(F)(F)F`, the GI50 is more than 100 µM in assay [1]; more than 100 µM in assay [2]; 22.2 µM in [3]; more than 100 µM in assay [4]; more than 100 µM in [5]; more than 100 µM in assay [6]. For the same compound, the GI50 in [7], in [8], in assay [9] and in assay [10] was more than 100 µM each time. Moreover, the concentration for total growth inhibition (TGI) in assay [1] was more than 100 µM; in assay [2], more than 100 µM; in [3], 69.2 µM; in [4], more than 100 µM; in assay [5], more than 100 µM; in assay [6], more than 100 µM. For the same compound, the total growth inhibition concentration (TGI) in assay [7], in assay [8], in assay [9] and in [10] was more than 100 µM in each case.
